In patent US20220175893A1, “COMBINATIONS OF TANNASE AND PROBIOTIC FORMULATIONS AND METHODS OF USE FOR IMPROVING TANNIN METABOLISM” (THE TEXAS A&M UNIVERSITY SYSTEM, priority 2019, published 2022):
Read-outs that look alike come from different tables or passages of the source. Marks after values point to notes of the source that are not given here.

What was measured:
rabbits [1] = test: Oral LD50 in rabbits (literature); format: in vivo, rabbit; settings: for equivalent dose of the LD50 for a human equivalent of 75 kg: for 10 days
Experimental: For a human equivalent of 75 kg, the equivalent dose would be 210,000 and 255,000 mg/day for 10 days.

rabbits [2] = settings: cited from earlier work
[3] = target: T1, Tannase sourced from Aspergillus oryzae (Aspergillus oryzae, UniProt P78581); test: Tannase (10^−3 U/mL) hydrolysis of galloyl glycosides, LC-MS; format: biochemical
T1 construct: purchased
Experimental: Standards solutions of monogalloyl glucose, pentagalloyl glucose, and a gallotannin isolate were incubated with tannase at 10^−3 U/mL to characterize the by-products and relative rates of galloyl derivative hydrolysis. 250 μL of 200 ppm monogalloyl glucose or pentagalloyl glucose were incubated with 650 μL of buffer set to the enzyme's optimum conditions (pH 5.5, 0.1 M citric acid buffer, 30° C.), and 100 μL of tannase 10^−3 U/mL for final standard concentrations of 50 ppm. […] Experiments were performed in a static water bath and prepared in triplicate for each time point at 0, 0.016, 0.033, 0.050, 0.083, 0.167, 0.5, 1, 1.5, 2, 3, 4 h. To end enzymatic activity, solutions were immediately diluted with 1000 μL 0.1% formic acid MeOH. Lastly, samples were filtered with a 0.45 μm syringe filter prior to LC-MS analysis.
Galloyl derivatives were characterized and quantified by use of LC-MS on a Thermo Finnigan HPLC. Separations were in reversed-phase using a Finnigan Surveyor HPLC coupled to a Surveyor PDA detector and gradient separations were performed using a Phenomenex Kinetex™ (Bannockburn, II) C18 column, (150×4.6 mm, 2.6 μm) at room temperature. Injections were made into the column by use of a 50 μL sample loop. […] A gradient was run of 0% Phase B for 2 min and changed to 10% Phase B in 4 min, 10% Phase B was held to 10 min, 10 to 40% Phase B in 25 min, and 40% to 65% Phase B in 35 min, 65% to 85% Phase B in 41 min, 85% was held to 49 min before returning to initial conditions. The electrospray interface worked in negative ionization mode. Source and capillary temperatures were set at 325° C., source voltage was 4.0 kV, capillary voltage was set at −47 V, and collision energy for MS/MS analysis was set at 35 eV. The instrument operated with sheath gas and auxiliary gas (N2) flow rates set at 10 units/min and 5 units/min, respectively. The instrument was tuned specifically for pentagalloyl glucose. […] Digalloyl glucoses, and trigalloyl glucoses were quantified at 280 nm and reported as equivalents of monogalloyl glucose. Tetragalloyl glucose and higher were quantified and reported as pentagalloyl glucose equivalents.
Tannase sourced from Aspergillus oryzae was incubated with standard solutions of monogalloyl glucose, pentagalloyl glucose, and a gallotannin isolate sourced from mango in an effort to characterize and quantify the intermediates formed during hydrolysis. […] Characterization of the different galloyl derivatives that can be formed during tannase hydrolysis is critical as they are likely to have different bio efficacies.

3T3-L1 adipocytes = settings: cited from earlier work
tannase = target: T2, tannase (Aspergillus oryzae, UniProt P78581); test: Tannase (20 U/mL) hydrolysis to free gallic acid, rhodanine assay; format: biochemical
T2 construct: purchased
T2 sequence (P78581 19-588): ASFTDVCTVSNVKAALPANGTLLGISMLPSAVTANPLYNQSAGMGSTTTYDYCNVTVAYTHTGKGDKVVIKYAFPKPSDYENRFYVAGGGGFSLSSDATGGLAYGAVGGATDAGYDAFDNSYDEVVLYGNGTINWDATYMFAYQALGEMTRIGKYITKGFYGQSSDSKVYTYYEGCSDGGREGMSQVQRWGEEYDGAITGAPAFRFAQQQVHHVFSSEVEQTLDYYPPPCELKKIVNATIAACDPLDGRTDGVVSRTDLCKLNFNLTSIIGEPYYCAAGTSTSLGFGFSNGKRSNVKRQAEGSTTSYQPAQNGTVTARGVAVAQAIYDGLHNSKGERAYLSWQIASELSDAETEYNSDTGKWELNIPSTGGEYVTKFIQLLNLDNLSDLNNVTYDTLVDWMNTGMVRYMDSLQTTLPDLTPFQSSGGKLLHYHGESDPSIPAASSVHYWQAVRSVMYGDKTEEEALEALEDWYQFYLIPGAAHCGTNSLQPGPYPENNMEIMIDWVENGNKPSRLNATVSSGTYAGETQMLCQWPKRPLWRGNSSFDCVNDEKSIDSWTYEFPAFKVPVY
Experimental: 200 uL of 641±16 and 2051±46 ppm GAE gallotannin isolate was aliquotted into test tubes and made up to 1 mL with 20 U/mL tannase hydrated in pH 5.5, 0.1 M citrate buffer. Samples were incubated for 0, 0.16 (10 min), 0.5, 1, 2, 4, 6, 12, and 24 h at 35° C. in a static water bath. After each time point had elapsed, 1 mL of 0.1% formic acid MeOH was added to each test tube. 50 and 100 ppm monogalloyl glucose was also treated with tannase under the same conditions. The total pro-gallic acid content of the gallotannin isolate and monogalloyl glucose were quantified by the colorimetric rhodanine assay modified from Inoue & Hagerman (1988). 600 μL of 0.667% rhodanine in methanol was added to 400 μL of hydrolyzed tannin fraction sample. After 10 min, 400 μL of 0.5 M NaOH was added to develop color for 20 min until bringing the final volume to 10 mL with deionized water. Absorbance was measured at 520 nm.

[4] = Stability of gallic acid at pH 5.5 over 24 h; format: physicochemical

O=C(OC[C@H]1O[C@@H](OC(=O)c2cc(O)c(O)c(OC(=O)c3cc(O)c(O)c(O)c3)c2)[C@H](OC(=O)c2cc(O)c(O)c(OC(=O)c3cc(O)c(O)c(O)c3)c2)[C@@H](OC(=O)c2cc(O)c(O)c(OC(=O)c3cc(O)c(O)c(O)c3)c2)[C@@H]1OC(=O)c1cc(O)c(O)c(OC(=O)c2cc(O)c(O)c(O)c2)c1)c1cc(O)c(O)c(OC(=O)c2cc(O)c(O)c(O)c2)c1 [tannic acid]
equivalent dose of the LD50 for a human equivalent of 75 kg (rabbits [1]): 255,000 mg/day | margin of the highest selected study dose (566 mg/L) below the LD50 dose (rabbits [1]; human equivalent of 75 kg): 451 fold | oral LD50 (rabbits [2]; rabbits, for 10 days): 3400 mg/kg/day

O=C(OC[C@H]1O[C@@H](OC(=O)c2cc(O)c(O)c(O)c2)[C@H](OC(=O)c2cc(O)c(O)c(O)c2)[C@@H](OC(=O)c2cc(O)c(O)c(O)c2)[C@@H]1OC(=O)c1cc(O)c(O)c(O)c1)c1cc(O)c(O)c(O)c1 [pentagalloyl glucose]
total pro-gallic acid content generated (molar basis) ([3]; 2 h incubation): 45.5±0.53% | pentagalloyl glucose hydrolyzed ([3]; 2 h incubation, pH 5.5, 30° C.): 97.2±0.27%

Oc1cccc(O)c1O [PG, pyrogallol]
adipogenesis and lipid accumulation (3T3-L1 adipocytes): inhibit adipogenesis and reduce lipid accumulation | thermogenesis (3T3-L1 adipocytes): promotes thermogenesis

monogalloyl glucose
time to reach the same amount of generated gallic acid as pentagalloyl glucose at 2 h [3]: 4 h | total pro-gallic acid content generated (molar basis) ([3]; 2 h incubation): 28.9±0.26% | hydrolysis to free gallic acid (tannase; 1 h incubation with 20 U/mL of tannase): completely hydrolyzed to free gallic acid | Free gallic acid from hydrolysis with 20 U/mL of tannase (tannase; monogalloyl glucose 50 mg/L, pH 5.5, 0 h): 1.26 ± 0.13 ^a mg/L | Free gallic acid from hydrolysis with 20 U/mL of tannase (tannase; monogalloyl glucose 50 mg/L, pH 5.5, 1 h): 19.9 ± 0.13 ^b mg/L | Free gallic acid from hydrolysis with 20 U/mL of tannase (tannase; monogalloyl glucose 50 mg/L, pH 5.5, 2 h): 20.2 ± 0.88 ^b mg/L | Free gallic acid from hydrolysis with 20 U/mL of tannase (tannase; monogalloyl glucose 50 mg/L, pH 5.5, 12 h): 20.1 ± 0.25 ^b mg/L | Free gallic acid from hydrolysis with 20 U/mL of tannase (tannase; monogalloyl glucose 50 mg/L, pH 5.5, 24 h): 19.9 ± 0.87 ^b mg/L | Free gallic acid from hydrolysis with 20 U/mL of tannase (tannase; monogalloyl glucose 100 mg/L, pH 5.5, 0 h): 1.76 ± 0.25 ^a mg/L | Free gallic acid from hydrolysis with 20 U/mL of tannase (tannase; monogalloyl glucose 100 mg/L, pH 5.5, 1 h): 39.7 ± 0.50 ^b mg/L | Free gallic acid from hydrolysis with 20 U/mL of tannase (tannase; monogalloyl glucose 100 mg/L, pH 5.5, 2 h): 42.5 ± 1.01 ^b mg/L | Free gallic acid from hydrolysis with 20 U/mL of tannase (tannase; monogalloyl glucose 100 mg/L, pH 5.5, 12 h): 39.2 ± 1.89 ^b mg/L | Free gallic acid from hydrolysis with 20 U/mL of tannase (tannase; monogalloyl glucose 100 mg/L, pH 5.5, 24 h): 35.7 ± 3.14 ^b mg/L

O=C(O)c1cc(O)c(O)c(O)c1 [Gallic Acid, gallic acid]
stability of gallic acid at the conditions of the method ([4]; 50 and 100 ppm gallic acid in pH 5.5 buffer, after 24 h): did not show any indication of degradation | Gallic acid concentration (stability at pH 5.5) ([4]; gallic acid 50 mg/L, pH 5.5, 0 h): 48.2 ± 1.28 ^a mg/L | Gallic acid concentration (stability at pH 5.5) ([4]; gallic acid 50 mg/L, pH 5.5, 1 h): 50.4 ± 0.45 ^b mg/L | Gallic acid concentration (stability at pH 5.5) ([4]; gallic acid 50 mg/L, pH 5.5, 2 h): 51.2 ± 0.62 ^b mg/L | Gallic acid concentration (stability at pH 5.5) ([4]; gallic acid 50 mg/L, pH 5.5, 12 h): 47.2 ± 0.87 ^b mg/L | Gallic acid concentration (stability at pH 5.5) ([4]; gallic acid 50 mg/L, pH 5.5, 24 h): 49.4 ± 0.37 ^b mg/L | Gallic acid concentration (stability at pH 5.5) ([4]; gallic acid 100 mg/L, pH 5.5, 0 h): 107 ± 3.07 ^a mg/L | Gallic acid concentration (stability at pH 5.5) ([4]; gallic acid 100 mg/L, pH 5.5, 1 h): 102 ± 2.43 ^b mg/L | Gallic acid concentration (stability at pH 5.5) ([4]; gallic acid 100 mg/L, pH 5.5, 2 h): 111 ± 1.63 ^b mg/L | Gallic acid concentration (stability at pH 5.5) ([4]; gallic acid 100 mg/L, pH 5.5, 12 h): 97.9 ± 1.38 ^b mg/L | Gallic acid concentration (stability at pH 5.5) ([4]; gallic acid 100 mg/L, pH 5.5, 24 h): 108 ± 1.11 ^b mg/L | equivalent dose of the LD50 for a human equivalent of 75 kg (rabbits [1]): 210,000 mg/day | oral LD50 (rabbits [2]; rabbit, in vivo, po): 2800 mg/kg/day
